Holding throughout (test): Post-emergence herbicidal activity test (stem and leaf spray, pot culture)
Holding throughout (assay type): in vivo
Common to all, as to conditions: 3 weeks after spraying

The subject of one assay is Trifoliumre pensL. A digest of the protocol:
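Pot-grown weeds in loam (pH 7), greenhouse at 20–30 °C, sprayed once post-emergence at the 2–3-leaf stage. Compound in acetone with Tween 80 plus methyl oleate oil (1.5 L/ha), applied at 10, 5 and 2.5 g/mu by spray tower. Effect scored 3 weeks after spraying, averaged over three repeats.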

The test system of a further assay is Abutilon theophrasti. A digest of the protocol: (§1)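 Seeds soaked 6 h at 25 °C, germinated at 28 °C, sown in loam pots and thinned to 10 plants/pot. At 2–3 leaves, plants received a single spray-tower application of 10, 5 or 2.5 g/mu. Fresh-weight control was graded 0–5 after 3 weeks.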
A further assay concerns Portulaca oleracea. A digest of the protocol: as §1
For another assay, the system named is Amaranthus retroflexus. Summed up:
as §1

A further assay relates to Echinochloa crusgalli. A digest of the protocol: as §1
Another assay deals with Setaria viridis. A digest of the protocol: as §1

`O=C1C2=C(CCCC2)C(=O)N1c1cc(OCc2nc(-c3c(F)cccc3F)no2)c(Cl)cc1F` [Compound A24]: the “Post-emergence herbicidal activity, Trifoliumre pensL. (grade)” value is 4 (Grade 4: the growth control rate is greater than or equal to 60% and less than 85%) with Trifoliumre pensL. (dosage 2.5 g/mu); 5 (Grade 5: the growth control rate is greater than or equal to 85%) in the assay with Trifoliumre pensL. (dosage 5 g/mu); 5 (Grade 5: the growth control rate is greater than or equal to 85%) with Trifoliumre pensL. (dosage 10 g/mu). Further, the “Post-emergence herbicidal activity, A. theophrasti (grade)” value in the assay on Abutilon theophrasti (dosage 2.5 g/mu), in the assay with Abutilon theophrasti (dosage 5 g/mu) and in the assay on Abutilon theophrasti (dosage 10 g/mu) was 5 (Grade 5: the growth control rate is greater than or equal to 85%) throughout. In addition, the “Post-emergence herbicidal activity, P. oleracea (grade)” value in the assay with Portulaca oleracea (dosage 2.5 g/mu) is 4 (Grade 4: the growth control rate is greater than or equal to 60% and less than 85%); with Portulaca oleracea (dosage 5 g/mu), 5 (Grade 5: the growth control rate is greater than or equal to 85%); with Portulaca oleracea (dosage 10 g/mu), 5 (Grade 5: the growth control rate is greater than or equal to 85%). In addition, the “Post-emergence herbicidal activity, A. retroflexus (grade)” value in the assay on Amaranthus retroflexus (dosage 2.5 g/mu), in the assay with Amaranthus retroflexus (dosage 5 g/mu) and in the assay on Amaranthus retroflexus (dosage 10 g/mu) was 5 (Grade 5: the growth control rate is greater than or equal to 85%) each time. Besides, the “Post-emergence herbicidal activity, E. crusgalli (grade)” value is 1 (Grade 1: the growth control rate is greater than or equal to 5% and less than 20%) in the assay on Echinochloa crusgalli (dosage 2.5 g/mu); 2 (Grade 2: the growth control rate is greater than or equal to 20% and less than 40%) with Echinochloa crusgalli (dosage 5 g/mu); 3 (Grade 3: the growth control rate is greater than or equal to 40% and less than 60%) with Echinochloa crusgalli (dosage 10 g/mu). The “Post-emergence herbicidal activity, S. viridis (grade)” value in the assay with Setaria viridis (dosage 2.5 g/mu) was 2 (Grade 2: the growth control rate is greater than or equal to 20% and less than 40%); in the assay on Setaria viridis (dosage 5 g/mu), 3 (Grade 3: the growth control rate is greater than or equal to 40% and less than 60%); with Setaria viridis (dosage 10 g/mu) it was 4 (Grade 4: the growth control rate is greater than or equal to 60% and less than 85%).
`O=C1C2=C(CCCC2)C(=O)N1c1cc(OCc2nc(-c3ccccc3)no2)c(Cl)cc1F` [Compound A25]: the “Post-emergence herbicidal activity, Trifoliumre pensL. (grade)” value was 4 (Grade 4: the growth control rate is greater than or equal to 60% and less than 85%) in the assay with Trifoliumre pensL. (dosage 2.5 g/mu); 5 (Grade 5: the growth control rate is greater than or equal to 85%) in the assay with Trifoliumre pensL. (dosage 5 g/mu); 5 (Grade 5: the growth control rate is greater than or equal to 85%) with Trifoliumre pensL. (dosage 10 g/mu). Also, the “Post-emergence herbicidal activity, A. theophrasti (grade)” value with Abutilon theophrasti (dosage 2.5 g/mu), in the assay on Abutilon theophrasti (dosage 5 g/mu) and with Abutilon theophrasti (dosage 10 g/mu) was 5 (Grade 5: the growth control rate is greater than or equal to 85%) in each case. The “Post-emergence herbicidal activity, P. oleracea (grade)” value with Portulaca oleracea (dosage 2.5 g/mu) is 4 (Grade 4: the growth control rate is greater than or equal to 60% and less than 85%); in the assay on Portulaca oleracea (dosage 5 g/mu), 5 (Grade 5: the growth control rate is greater than or equal to 85%); in the assay with Portulaca oleracea (dosage 10 g/mu) it was 5 (Grade 5: the growth control rate is greater than or equal to 85%). Besides, the “Post-emergence herbicidal activity, A. retroflexus (grade)” value with Amaranthus retroflexus (dosage 2.5 g/mu), in the assay on Amaranthus retroflexus (dosage 5 g/mu) and with Amaranthus retroflexus (dosage 10 g/mu) was 5 (Grade 5: the growth control rate is greater than or equal to 85%) throughout. Also, the “Post-emergence herbicidal activity, E. crusgalli (grade)” value in the assay on Echinochloa crusgalli (dosage 2.5 g/mu) is 1 (Grade 1: the growth control rate is greater than or equal to 5% and less than 20%); in the assay on Echinochloa crusgalli (dosage 5 g/mu), 2 (Grade 2: the growth control rate is greater than or equal to 20% and less than 40%); in the assay on Echinochloa crusgalli (dosage 10 g/mu) it was 3 (Grade 3: the growth control rate is greater than or equal to 40% and less than 60%). The “Post-emergence herbicidal activity, S. viridis (grade)” value in the assay on Setaria viridis (dosage 2.5 g/mu) was 2 (Grade 2: the growth control rate is greater than or equal to 20% and less than 40%); in the assay with Setaria viridis (dosage 5 g/mu), 3 (Grade 3: the growth control rate is greater than or equal to 40% and less than 60%); in the assay on Setaria viridis (dosage 10 g/mu), 4 (Grade 4: the growth control rate is greater than or equal to 60% and less than 85%).
Take `CC(C)(C)c1ccc(-c2noc(COc3cc(N4C(=O)C5=C(CCCC5)C4=O)c(F)cc3Cl)n2)cc1` [Compound A26]: the “Post-emergence herbicidal activity, Trifoliumre pensL. (grade)” value in the assay with Trifoliumre pensL. (dosage 2.5 g/mu) is 4 (Grade 4: the growth control rate is greater than or equal to 60% and less than 85%); in the assay with Trifoliumre pensL. (dosage 5 g/mu), 5 (Grade 5: the growth control rate is greater than or equal to 85%); in the assay with Trifoliumre pensL. (dosage 10 g/mu), 5 (Grade 5: the growth control rate is greater than or equal to 85%). In addition, the “Post-emergence herbicidal activity, A. theophrasti (grade)” value in the assay on Abutilon theophrasti (dosage 2.5 g/mu), with Abutilon theophrasti (dosage 5 g/mu) and in the assay on Abutilon theophrasti (dosage 10 g/mu) was 5 (Grade 5: the growth control rate is greater than or equal to 85%) throughout. Also, the “Post-emergence herbicidal activity, P. oleracea (grade)” value in the assay on Portulaca oleracea (dosage 2.5 g/mu) was 4 (Grade 4: the growth control rate is greater than or equal to 60% and less than 85%); in the assay with Portulaca oleracea (dosage 5 g/mu), 5 (Grade 5: the growth control rate is greater than or equal to 85%); in the assay with Portulaca oleracea (dosage 10 g/mu) it was 5 (Grade 5: the growth control rate is greater than or equal to 85%). The “Post-emergence herbicidal activity, A. retroflexus (grade)” value with Amaranthus retroflexus (dosage 2.5 g/mu), with Amaranthus retroflexus (dosage 5 g/mu) and in the assay with Amaranthus retroflexus (dosage 10 g/mu) was 5 (Grade 5: the growth control rate is greater than or equal to 85%) throughout. Besides, the “Post-emergence herbicidal activity, E. crusgalli (grade)” value in the assay with Echinochloa crusgalli (dosage 2.5 g/mu) is 1 (Grade 1: the growth control rate is greater than or equal to 5% and less than 20%); in the assay with Echinochloa crusgalli (dosage 5 g/mu) it was 2 (Grade 2: the growth control rate is greater than or equal to 20% and less than 40%); in the assay with Echinochloa crusgalli (dosage 10 g/mu), 3 (Grade 3: the growth control rate is greater than or equal to 40% and less than 60%). For the same compound, the “Post-emergence herbicidal activity, S. viridis (grade)” value is 2 (Grade 2: the growth control rate is greater than or equal to 20% and less than 40%) in the assay with Setaria viridis (dosage 2.5 g/mu); 3 (Grade 3: the growth control rate is greater than or equal to 40% and less than 60%) in the assay with Setaria viridis (dosage 5 g/mu); 4 (Grade 4: the growth control rate is greater than or equal to 60% and less than 85%) with Setaria viridis (dosage 10 g/mu).
Consider `O=C1C2=C(CCCC2)C(=O)N1c1cc(OCc2nc(-c3ccc(I)cc3)no2)c(Cl)cc1F` [Compound A27], for which the “Post-emergence herbicidal activity, Trifoliumre pensL. (grade)” value in the assay on Trifoliumre pensL. (dosage 2.5 g/mu), with Trifoliumre pensL. (dosage 5 g/mu) and in the assay on Trifoliumre pensL. (dosage 10 g/mu) was 5 (Grade 5: the growth control rate is greater than or equal to 85%) in each case. Further, the “Post-emergence herbicidal activity, A. theophrasti (grade)” value in the assay on Abutilon theophrasti (dosage 2.5 g/mu), in the assay with Abutilon theophrasti (dosage 5 g/mu) and in the assay on Abutilon theophrasti (dosage 10 g/mu) was 5 (Grade 5: the growth control rate is greater than or equal to 85%) throughout. Further, the “Post-emergence herbicidal activity, P. oleracea (grade)” value in the assay on Portulaca oleracea (dosage 2.5 g/mu), with Portulaca oleracea (dosage 5 g/mu) and with Portulaca oleracea (dosage 10 g/mu) was 5 (Grade 5: the growth control rate is greater than or equal to 85%) each time. Moreover, the “Post-emergence herbicidal activity, A. retroflexus (grade)” value in the assay with Amaranthus retroflexus (dosage 2.5 g/mu), with Amaranthus retroflexus (dosage 5 g/mu) and with Amaranthus retroflexus (dosage 10 g/mu) was 5 (Grade 5: the growth control rate is greater than or equal to 85%) each time. Moreover, the “Post-emergence herbicidal activity, E. crusgalli (grade)” value was 1 (Grade 1: the growth control rate is greater than or equal to 5% and less than 20%) in the assay with Echinochloa crusgalli (dosage 2.5 g/mu); 2 (Grade 2: the growth control rate is greater than or equal to 20% and less than 40%) with Echinochloa crusgalli (dosage 5 g/mu); 3 (Grade 3: the growth control rate is greater than or equal to 40% and less than 60%) in the assay with Echinochloa crusgalli (dosage 10 g/mu). Besides, the “Post-emergence herbicidal activity, S. viridis (grade)” value with Setaria viridis (dosage 2.5 g/mu) was 2 (Grade 2: the growth control rate is greater than or equal to 20% and less than 40%); in the assay on Setaria viridis (dosage 5 g/mu), 3 (Grade 3: the growth control rate is greater than or equal to 40% and less than 60%); in the assay on Setaria viridis (dosage 10 g/mu), 4 (Grade 4: the growth control rate is greater than or equal to 60% and less than 85%).
